From US7547709B2, “Chain-breaking antioxidants” (Vanderbilt University, priority 2004, dated 2009)
Read-outs that look alike come from different tables or passages of the source. Marks after values point to notes of the source that are not given here.

Tests used:
[1] = for O—H BDE: O—H bond dissociation enthalpy: Table A; for O—H BDE, absolute measured value (±2 SD): EPR equilibration; for O—H BDE, absolute measured value (±2 SD) / Experimental substituent effect on O—H BDE, 5-pyrimidinols (vi): solution phase; for Experimental substituent effect on O—H BDE, 5-pyrimidinols (vi): 298 K, relative to unsubstituted (vi)
[2] = Burton et al. 1985; cited from earlier work
[3] = benzene, 298 K, reported in ref 12, cited from earlier work
[4] = solution phase, 298 K, from ref 2C, cited from earlier work; for Experimental substituent effect on O—H BDE, phenols (iv): relative to unsubstituted (iv)
[5] = Reaction with peroxyl radicals, oxygen consumption in inhibited autoxidation of styrene; format: physicochemical; conditions: for Rate constant for reaction with peroxyl radicals: benzene, 323 K; for k/peroxyl: second order rate constant for reaction with peroxyl radicals: Table A; for Rate constants with peroxyl radicals, pyrimidinol versus phenolic counterpart: (vi)/(iv) pair
[6] = open atmosphere
[7] = for k/alkyl: second order rate constant for reaction with alkyl radicals: Table A
[8] = parameters: key: Not an air-stable compound; conditions: Table 2, column (iv); cited from earlier work

## COc1nc(C)c(O)c(C)n1 [Example 4, 2-Methoxy-4,6-dimethyl-5-pyrimidinol]
[1]
  O—H BDE: O—H bond dissociation enthalpy: 82.5

## CCN1CCCc2c(C)c(O)c(C)c(C)c21 [Formula 3b]
[2]
  Reactivity with peroxyl radicals compared to tocopherol, in words: react slowly with peroxyl radicals

## Cc1cc(C)c(O)c(C)c1 [iv-b]
[3]; neophyl clock (N)
  Rate constant for reaction with alkyl radicals: 8.5 ± 0.2 × 10^4 (N)^e M^−1 s^−1
[4]
  Experimental substituent effect on O—H BDE, phenols (iv): -5.6 kcal/mol
[5]
  Rate constant for reaction with peroxyl radicals: 1.1 ± 0.1 × 10^5 M^−1 s^−1

## Cc1nc(N(C)C)nc(C)c1O [Example 5, 2-N,N-Dimethylamino-4,6-dimethyl-5-pyrimidinol]
[1]
  O—H BDE, absolute measured value (±2 SD): 78.16 ± 0.25 kcal/mol
  O—H BDE: O—H bond dissociation enthalpy: 78.2
  Experimental substituent effect on O—H BDE, 5-pyrimidinols (vi): -12.9 kcal/mol
[1]; relative to a-TOH
  O—H BDE difference versus a-TOH, experiment: -0.1 kcal/mol
[6]
  Stability to air oxidation, in words: without degradation by air oxidation
[5]
  k/peroxyl: second order rate constant for reaction with peroxyl radicals: 8.6 ± 0.5 × 10^6
  Rate constant for reaction with peroxyl radicals: 8.6 ± 0.5 × 10^6f M^−1 s^−1
[5]; dry solvents containing D2O
  Deuterium kinetic isotope effect (kH/kD), peroxyl radicals: 3.1
[7]
  k/alkyl: second order rate constant for reaction with alkyl radicals: 2.9 ± 1.1 × 10^6
[7]; benzene, 298 K, 5-hexenyl radical clock (H)
  Rate constant for reaction with alkyl radicals: 2.9 ± 1.1 × 10^6 (H) M^−1 s^−1
[7]; versus α-TOH
  Rate of reaction with alkyl radicals relative to α-TOH: 5 times

## Cc1cc(C(C)(C)C)c(O)c(C(C)(C)C)c1 [iv-c]
[3]; neophyl clock (N)
  Rate constant for reaction with alkyl radicals: 4.8 ± 1.5 × 10^3 (N)^e M^−1 s^−1
[4]
  Experimental substituent effect on O—H BDE, phenols (iv): -7.3 kcal/mol
[5]
  Rate constant for reaction with peroxyl radicals: 1.8 ± 0.3 × 10^4 M^−1 s^−1

## Oc1ccccc1 [iv, phenol]
[4]
  O—H BDE of unsubstituted phenol, absolute value: (88.3) kcal/mol

## Cc1cc(N(C)C)cc(C)c1O [iv-d]
[8]
  Air stability, footnote letter in place of O—H BDE: d

## α-tocopherol [a-TOH (1)]
[3]; 5-hexenyl clock (H)
  Rate constant for reaction with alkyl radicals: 6.0 ± 1.5 × 10^5 (H)^e M^−1 s^−1
[4]
  Experimental substituent effect on O—H BDE, phenols (iv): −10.0^c kcal/mol
[5]
  Rate constant for reaction with peroxyl radicals: 4.1 ± 0.4 × 10^6 M^−1 s^−1

## Cc1nc(C(C)(C)C)c(O)c(C(C)(C)C)n1 [Example 3, 2-Methyl-4,6-di-tert-butyl-5-pyrimidinol]
[1]
  O—H BDE, absolute measured value (±2 SD): 84.10 ± 0.25 kcal/mol
  O—H BDE: O—H bond dissociation enthalpy: 84.1
  Experimental substituent effect on O—H BDE, 5-pyrimidinols (vi): -7.0 kcal/mol
[5]
  Rate constants with peroxyl radicals, pyrimidinol versus phenolic counterpart: roughly the same
  k/peroxyl: second order rate constant for reaction with peroxyl radicals: 2.2 ± 0.3 × 10^4
  Rate constant for reaction with peroxyl radicals: 2.2 ± 0.3 × 10^4 M^−1 s^−1
[7]
  k/alkyl: second order rate constant for reaction with alkyl radicals: 3.2 ± 0.5 × 10^4
[7]; benzene, 298 K, neophyl radical clock (N)
  Rate constant for reaction with alkyl radicals: 3.2 ± 0.5 × 10^4 (N) M^−1 s^−1

## Oc1cncnc1 [Example 1, 5-Pyrimidinol]
[1]; Estimate based upon other results to date for other 5-pyrimidinols
  O—H BDE: O—H bond dissociation enthalpy (estimate): 91.3^a
[7]
  k/alkyl: second order rate constant for reaction with alkyl radicals: 3.6 × 10^6

## Cc1nc(C)c(O)c(C)n1 [Example 2, 2,4,6-Trimethyl-5-pyrimidinol]
[1]
  O—H BDE, absolute measured value (±2 SD): 85.2 ± 0.5 kcal/mol
  O—H BDE: O—H bond dissociation enthalpy: 85.2
  Experimental substituent effect on O—H BDE, 5-pyrimidinols (vi): -5.9 kcal/mol
[5]
  Rate constants with peroxyl radicals, pyrimidinol versus phenolic counterpart: ≤ 3
  k/peroxyl: second order rate constant for reaction with peroxyl radicals: 3.3 ± 0.4 × 10^4
  Rate constant for reaction with peroxyl radicals: 3.3 ± 0.4 × 10^4 M^−1 s^−1
[7]
  k/alkyl: second order rate constant for reaction with alkyl radicals: 4.6 × 10^5
[7]; benzene, 298 K, neophyl clock (N), estimate from correlations of k and β for CH3CN, EtOAc, t-BuOH
  Rate constant for reaction with alkyl radicals (estimate): 4.6 × 10^5 (N)^c,d M^−1 s^−1
[7]; dry solvents containing D2O
  Deuterium kinetic isotope effect (kH/kD), alkyl radicals: 3.1
